≈ marks a conversion by molar mass, not a printed value.
Assays:
Format in all cases: cell-based
[1] = system: Candida albicans NCYC 597; experiment: Antifungal activity, agar plate disc zone of inhibition, approximate MIC, Candida albicans; settings: NCYC597, C. albicans, compound in dimethyl sulphoxide, 13 mm discs on nutrient agar, 24h and 48h incubation, read-out: MICs, C. albicans
Protocol: (§1) Candida albicans NCYC 597; Trichophyton mentagrophytes NCPF 224 and Microsporum audounii NCPF 638 were used throughout as test organisms. These are open deposits at the National Collection of Yeast Cultures, Norwich UK and the National Collection of Pathogenic Fungi of the Commonwealth Mycological Institute, Kew UK.
(§2) All organisms were maintained in a nutrient broth containing (gl^-1): Lab Lemco (Oxoid), 5; Peptone (Oxoid), 5; NaCl, 10. Cultures for testing antimicrobial activity were grown in this medium for 18h prior to use. Solidified media were prepared by the addition of Agar (Oxoid No. 3) 1.5% w/v.
(§3) Antifungal activity was estimated using solutions of the compound (as the free acid) in dimethyl sulphoxide. A range of concentrations was used for each compound to permit calculation of an approximate MIC. 13 mm discs (Whatman) were soaked in a solution of the appropriate dilution, either allowed to dry, or placed directly onto the surface of nutrient agar plates seeded with the required test organism.
(§4) After 24h incubation the diameters of zones of inhibition were measured. After a further 24h incubation, the plates were re-examined and zones re-measured.

[2] = system: Trichophyton mentagrophytes NCPF 224; experiment: Antifungal activity, agar plate disc zone of inhibition, approximate MIC, Trichophyton mentagrophytes; settings: for MIC: Trichophyton mentagrophytes, NCPF224, approximate MIC, compound in dimethyl sulphoxide, 13 mm discs on nutrient agar, 24h and 48h incubation, read-out: MICs, T. ment.; for activity against the athlete's foot organism (in words): athlete's foot and ringworm organisms
Protocol: as §1, §2, §3, §4

[3] = system: Microsporum audounii NCPF 638; experiment: Antifungal activity, agar plate disc zone of inhibition, approximate MIC, Microsporum audounii; settings: for MIC: Microsporum, NCPF638, M. audounii, approximate MIC, compound in dimethyl sulphoxide, 13 mm discs on nutrient agar, 24h and 48h incubation; for activity against the ringworm organism (in words): athlete's foot and ringworm organisms
Protocol: as §1, §2, §3, §4

In the case of `C[C@H](CCCCO)[C@H]1CC[C@H]2[C@@H]3[C@H](O)C[C@@H]4C[C@H](O)CC[C@]4(C)[C@H]3CC[C@]12C` [chenodeoxycholic, Z = CH2 OH, 3α,7α,25-trihydroxy-25-homo-5β-cholane], the MIC [1] is reported as 110 µg/mL (≈ 280 µM), the “MICs, T. ment. (result in words)” value ([2]; T. mentagrophytes, no MIC / no activity) is reported as “NONE” and the MIC [3] is reported as 270 µg/mL (≈ 688 µM).
`C[C@H](CCCO)[C@H]1CC[C@H]2[C@@H]3[C@H](O)C[C@@H]4C[C@H](O)CC[C@]4(C)[C@H]3CC[C@]12C` [chenodeoxycholic, Z = OH, 3α,7α,24-trihydroxy-5β-cholane] showed an MIC [1] of 7000 µg/mL (≈ 18500 µM), an MIC ([2]; T. mentagrophytes) of 30 µg/mL (≈ 79.2 µM) and an MIC [3] of 50 µg/mL (≈ 132 µM).
For `C[C@H](CCCCO)[C@H]1CC[C@H]2[C@@H]3[C@H](O)C[C@@H]4C[C@H](O)CC[C@]4(C)[C@H]3C[C@H](O)[C@]12C` [cholic, Z = CH2 OH, 3α,7α,12α,25-tetrahydroxy-25-homo-5β-cholane], the MIC [1] was 450 µg/mL (≈ 1100 µM), the MIC ([2]; T. mentagrophytes) was 100 µg/mL (≈ 245 µM) and the MIC [3] was 20 to 50 µg/mL (≈ 48.9 to 122 µM).
In the case of `C[C@H](CCCO)[C@H]1CC[C@H]2[C@@H]3[C@H](O)C[C@@H]4C[C@H](O)CC[C@]4(C)[C@H]3C[C@H](O)[C@]12C` [cholic, Z = OH, 3α,7α,12α,24-tetrahydroxy-5β-cholane], the MIC [1] is reported as 900 µg/mL (≈ 2280 µM), the MIC ([2]; T. mentagrophytes) is reported as 1650 µg/mL (≈ 4180 µM) and the MIC [3] is reported as 3800 µg/mL (≈ 9630 µM).
In the case of `C[C@H](CCCCO)[C@H]1CC[C@H]2[C@@H]3CC[C@@H]4C[C@H](O)CC[C@]4(C)[C@H]3C[C@H](O)[C@]12C` [deoxycholic, Z = CH2 OH, 3α,12α,25-trihydroxy-25-homo-5β-cholane], the MIC [1] is reported as 150 µg/mL (≈ 382 µM), the MIC ([2]; T. mentagrophytes) is reported as 30 µg/mL (≈ 76.4 µM) and the “activity against the athlete's foot organism (in words)” value [2] is reported as “outstanding”. The MIC [3] was 5 µg/mL (≈ 12.7 µM) and the “activity against the ringworm organism (in words)” value [3] was “outstanding”.
For `C[C@H](CCCO)[C@H]1CC[C@H]2[C@@H]3CC[C@@H]4C[C@H](O)CC[C@]4(C)[C@H]3C[C@H](O)[C@]12C` [deoxycholic, Z = OH, 3α,12α,24-trihydroxy-5β-cholane], the MIC [1] was 730 µg/mL (≈ 1930 µM), the MIC ([2]; T. mentagrophytes) was 10 µg/mL (≈ 26.4 µM) and the “activity against the athlete's foot organism (in words)” value [2] was “outstanding”. The MIC [3] was 10 µg/mL (≈ 26.4 µM) and the “activity against the ringworm organism (in words)” value [3] was “outstanding”.

From US5304551A, “Anti-fungal compounds” (British Technology Group Limited, priority 1990, dated 1994)
